# ChEMBL document CHEMBL5465560, “Selectivity Literature for EUbOPEN Chemogenomic Library” (2024)
# How the values were obtained:
# [1] = biological target: Mitogen-activated protein kinase kinase kinase 20 (Homo sapiens) (UniProt Q9NYL2); details: at 10 µM
# [2] = biological target: Casein kinase I isoform gamma-2 (Homo sapiens) (UniProt P78368); assay: Selectivity interaction (KinomeScan (DiscoverX)) EUB0000229b CSNK1G2; details: at 10 µM
# [3] = biological target: Serine/threonine-protein kinase B-raf (Homo sapiens) (UniProt P15056); assay: Selectivity interaction (KinomeScan (DiscoverX)) EUB0000092b BRAF; details: at 10 µM
# [4] = biological target: Serine/threonine-protein kinase MARK2 (Homo sapiens) (UniProt Q7KZI7); assay: Selectivity interaction (Upstate Kinase Profiler service (Millipore)) EUB0000056c MARK2; details: at 1 µM
# [5] = biological target: Tyrosine-protein kinase Blk (Homo sapiens) (UniProt P51451); assay: Selectivity interaction (KinomeScan (DiscoverX)) EUB0000655a BLK; details: at 10 µM
# [6] = biological target: Serine/threonine-protein kinase MARK1 (Homo sapiens) (UniProt Q9P0L2); assay: Selectivity interaction (KinomeScan (DiscoverX)) EUB0000655a MARK1; details: at 10 µM
# [7] = biological target: T1, Membrane-associated tyrosine- and threonine-specific cdc2-inhibitory kinase (Homo sapiens) (UniProt Q99640); assay: Selectivity interaction (ProQinase) EUB0000171b PKMYT1
# T1 sequence (whole entry): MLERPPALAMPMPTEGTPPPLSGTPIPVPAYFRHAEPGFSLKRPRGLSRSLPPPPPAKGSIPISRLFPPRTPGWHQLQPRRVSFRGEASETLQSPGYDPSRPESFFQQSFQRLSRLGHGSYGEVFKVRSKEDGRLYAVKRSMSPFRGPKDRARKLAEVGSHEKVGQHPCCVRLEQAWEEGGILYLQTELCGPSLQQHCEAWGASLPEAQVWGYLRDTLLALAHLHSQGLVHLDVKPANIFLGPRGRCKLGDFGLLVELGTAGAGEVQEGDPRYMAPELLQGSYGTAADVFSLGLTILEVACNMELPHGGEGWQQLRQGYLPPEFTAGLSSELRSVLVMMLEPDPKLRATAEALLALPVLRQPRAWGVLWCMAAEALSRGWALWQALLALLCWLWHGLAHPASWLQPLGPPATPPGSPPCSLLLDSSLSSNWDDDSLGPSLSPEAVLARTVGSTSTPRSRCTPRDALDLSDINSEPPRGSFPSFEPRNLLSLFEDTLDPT
# [8] = biological target: Cyclin-dependent kinase 11B (Homo sapiens) (UniProt P21127); assay: Selectivity interaction (KinomeScan (DiscoverX)) EUB0001079a CDK11B; details: at 1 µM
# [9] = biological target: Casein kinase II subunit alpha (Homo sapiens, UniProt P68400); assay: Selectivity interaction (KinomeScan (DiscoverX)) EUB0001079a CSNK2A1; details: at 1 µM
# Casein kinase II subunit alpha, sequence (P68400 whole entry, looked up): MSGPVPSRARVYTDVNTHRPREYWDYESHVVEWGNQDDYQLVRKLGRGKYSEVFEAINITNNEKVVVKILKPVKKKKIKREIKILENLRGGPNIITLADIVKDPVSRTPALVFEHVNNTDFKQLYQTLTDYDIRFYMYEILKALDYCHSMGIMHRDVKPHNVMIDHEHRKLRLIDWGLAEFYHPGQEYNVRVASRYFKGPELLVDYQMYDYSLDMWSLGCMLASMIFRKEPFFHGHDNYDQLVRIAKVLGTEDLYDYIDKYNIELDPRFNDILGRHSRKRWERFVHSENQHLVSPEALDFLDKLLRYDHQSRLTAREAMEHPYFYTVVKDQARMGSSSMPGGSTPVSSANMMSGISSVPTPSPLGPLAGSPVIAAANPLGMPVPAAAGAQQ
# [10] = biological target: Tyrosine-protein kinase Lyn (Homo sapiens, UniProt P07948); assay: Selectivity interaction (KinomeScan (DiscoverX)) EUB0001079a LYN; details: at 1 µM
# [11] = biological target: Transcription initiation factor TFIID subunit 1 (Homo sapiens) (UniProt P21675); assay: Selectivity interaction (Human bromodomain panel (DSF assay)) EUB0000233b TAF1
# Transcription initiation factor TFIID subunit 1 (Homo sapiens), sequence (P21675 whole entry): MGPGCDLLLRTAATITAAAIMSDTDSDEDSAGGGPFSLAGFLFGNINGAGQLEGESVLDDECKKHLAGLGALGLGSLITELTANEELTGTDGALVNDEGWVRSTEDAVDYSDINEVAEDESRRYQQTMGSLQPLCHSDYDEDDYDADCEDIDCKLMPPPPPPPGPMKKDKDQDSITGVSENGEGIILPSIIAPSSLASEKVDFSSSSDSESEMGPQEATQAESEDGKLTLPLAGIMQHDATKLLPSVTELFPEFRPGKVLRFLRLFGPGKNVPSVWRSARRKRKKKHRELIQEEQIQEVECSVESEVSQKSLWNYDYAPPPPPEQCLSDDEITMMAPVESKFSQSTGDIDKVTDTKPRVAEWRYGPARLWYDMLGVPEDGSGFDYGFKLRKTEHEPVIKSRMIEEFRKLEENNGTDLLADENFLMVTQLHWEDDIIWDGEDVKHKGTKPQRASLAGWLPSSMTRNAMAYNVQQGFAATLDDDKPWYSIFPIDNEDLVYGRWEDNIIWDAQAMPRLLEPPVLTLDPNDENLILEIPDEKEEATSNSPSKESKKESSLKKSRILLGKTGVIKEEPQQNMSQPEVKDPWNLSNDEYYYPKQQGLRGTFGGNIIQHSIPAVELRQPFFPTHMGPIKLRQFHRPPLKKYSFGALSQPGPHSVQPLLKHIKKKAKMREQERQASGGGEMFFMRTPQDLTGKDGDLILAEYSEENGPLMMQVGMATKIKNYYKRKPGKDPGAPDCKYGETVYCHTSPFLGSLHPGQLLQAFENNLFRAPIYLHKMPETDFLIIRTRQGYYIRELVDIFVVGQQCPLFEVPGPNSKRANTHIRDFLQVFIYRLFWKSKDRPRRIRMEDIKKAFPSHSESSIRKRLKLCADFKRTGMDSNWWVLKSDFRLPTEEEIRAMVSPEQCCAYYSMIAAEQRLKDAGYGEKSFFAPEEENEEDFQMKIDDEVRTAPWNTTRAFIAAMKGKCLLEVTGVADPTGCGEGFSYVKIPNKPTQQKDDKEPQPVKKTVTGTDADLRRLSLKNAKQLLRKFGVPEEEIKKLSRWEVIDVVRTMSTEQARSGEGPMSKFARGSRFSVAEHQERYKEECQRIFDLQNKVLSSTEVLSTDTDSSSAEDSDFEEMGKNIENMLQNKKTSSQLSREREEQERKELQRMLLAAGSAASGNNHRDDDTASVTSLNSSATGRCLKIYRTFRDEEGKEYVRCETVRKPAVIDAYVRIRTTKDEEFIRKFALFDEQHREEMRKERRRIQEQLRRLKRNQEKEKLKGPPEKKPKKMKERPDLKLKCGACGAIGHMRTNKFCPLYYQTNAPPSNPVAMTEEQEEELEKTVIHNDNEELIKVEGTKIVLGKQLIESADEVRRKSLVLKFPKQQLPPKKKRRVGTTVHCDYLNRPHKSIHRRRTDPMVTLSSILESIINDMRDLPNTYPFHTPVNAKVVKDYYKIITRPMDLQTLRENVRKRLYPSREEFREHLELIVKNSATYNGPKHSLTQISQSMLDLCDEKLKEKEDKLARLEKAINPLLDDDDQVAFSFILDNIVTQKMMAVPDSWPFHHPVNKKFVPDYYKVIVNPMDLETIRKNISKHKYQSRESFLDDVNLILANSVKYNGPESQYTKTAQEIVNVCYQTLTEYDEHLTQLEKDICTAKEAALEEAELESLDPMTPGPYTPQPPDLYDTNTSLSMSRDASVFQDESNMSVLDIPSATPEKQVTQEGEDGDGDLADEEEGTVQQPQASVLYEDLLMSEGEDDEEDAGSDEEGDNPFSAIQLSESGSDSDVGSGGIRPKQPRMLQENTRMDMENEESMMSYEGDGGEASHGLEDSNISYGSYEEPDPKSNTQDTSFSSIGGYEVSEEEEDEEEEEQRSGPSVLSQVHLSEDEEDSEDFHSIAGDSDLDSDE
# [12] = biological target: Mitogen-activated protein kinase kinase kinase kinase 1 (Homo sapiens) (UniProt Q92918); details: at 10 µM
# [13] = biological target: Mitogen-activated protein kinase kinase kinase 10 (Homo sapiens) (UniProt Q02779); assay: Selectivity interaction (LanthaScreen Eu Kinase Binding Assay) EUB0001632a MAP3K10; details: at 10 µM
# [14] = biological target: Serine/threonine-protein kinase 10 (Homo sapiens) (UniProt O94804); assay: Selectivity interaction (ActivX KiNativ screen (kinase selectivity in THP-1 cell lysates)) EUB0000639a STK10; format: subcellular; details: lysate, at 0.01 µM
# Serine/threonine-protein kinase 10 (Homo sapiens), sequence (O94804 whole entry, looked up): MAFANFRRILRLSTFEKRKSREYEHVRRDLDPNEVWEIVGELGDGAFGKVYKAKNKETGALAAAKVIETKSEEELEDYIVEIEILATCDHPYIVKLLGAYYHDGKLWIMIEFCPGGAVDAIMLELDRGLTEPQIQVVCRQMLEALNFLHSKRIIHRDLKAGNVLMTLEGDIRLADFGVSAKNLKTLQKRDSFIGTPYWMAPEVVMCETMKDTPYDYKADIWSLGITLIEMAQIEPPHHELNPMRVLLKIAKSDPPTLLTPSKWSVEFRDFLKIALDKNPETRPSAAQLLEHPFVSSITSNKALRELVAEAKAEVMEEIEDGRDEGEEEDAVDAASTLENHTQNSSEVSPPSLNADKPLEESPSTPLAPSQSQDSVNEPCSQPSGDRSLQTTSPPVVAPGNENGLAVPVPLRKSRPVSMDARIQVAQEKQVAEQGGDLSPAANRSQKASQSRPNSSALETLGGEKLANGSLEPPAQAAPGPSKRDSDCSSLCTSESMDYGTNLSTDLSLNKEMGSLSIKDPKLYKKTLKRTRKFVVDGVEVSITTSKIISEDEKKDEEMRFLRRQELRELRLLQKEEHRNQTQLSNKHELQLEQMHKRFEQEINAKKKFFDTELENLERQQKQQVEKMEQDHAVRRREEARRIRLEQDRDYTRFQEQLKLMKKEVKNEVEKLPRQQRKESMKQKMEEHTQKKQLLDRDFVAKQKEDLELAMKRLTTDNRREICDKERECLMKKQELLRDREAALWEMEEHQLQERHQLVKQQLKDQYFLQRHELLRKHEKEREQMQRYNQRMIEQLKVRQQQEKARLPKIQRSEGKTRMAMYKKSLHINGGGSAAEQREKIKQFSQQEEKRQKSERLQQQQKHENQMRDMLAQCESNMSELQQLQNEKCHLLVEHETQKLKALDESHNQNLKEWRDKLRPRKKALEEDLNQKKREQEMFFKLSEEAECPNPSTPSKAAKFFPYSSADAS
# [15] = biological target: Glycogen synthase kinase-3 beta (Homo sapiens, UniProt P49841); assay: Selectivity interaction (KinomeScan (DiscoverX)) EUB0001049a GSK3B; details: at 1 µM
# [16] = biological target: Vascular endothelial growth factor receptor 1 (Homo sapiens) (UniProt P17948); details: at 10 µM
# Vascular endothelial growth factor receptor 1 (Homo sapiens), sequence (P17948 whole entry): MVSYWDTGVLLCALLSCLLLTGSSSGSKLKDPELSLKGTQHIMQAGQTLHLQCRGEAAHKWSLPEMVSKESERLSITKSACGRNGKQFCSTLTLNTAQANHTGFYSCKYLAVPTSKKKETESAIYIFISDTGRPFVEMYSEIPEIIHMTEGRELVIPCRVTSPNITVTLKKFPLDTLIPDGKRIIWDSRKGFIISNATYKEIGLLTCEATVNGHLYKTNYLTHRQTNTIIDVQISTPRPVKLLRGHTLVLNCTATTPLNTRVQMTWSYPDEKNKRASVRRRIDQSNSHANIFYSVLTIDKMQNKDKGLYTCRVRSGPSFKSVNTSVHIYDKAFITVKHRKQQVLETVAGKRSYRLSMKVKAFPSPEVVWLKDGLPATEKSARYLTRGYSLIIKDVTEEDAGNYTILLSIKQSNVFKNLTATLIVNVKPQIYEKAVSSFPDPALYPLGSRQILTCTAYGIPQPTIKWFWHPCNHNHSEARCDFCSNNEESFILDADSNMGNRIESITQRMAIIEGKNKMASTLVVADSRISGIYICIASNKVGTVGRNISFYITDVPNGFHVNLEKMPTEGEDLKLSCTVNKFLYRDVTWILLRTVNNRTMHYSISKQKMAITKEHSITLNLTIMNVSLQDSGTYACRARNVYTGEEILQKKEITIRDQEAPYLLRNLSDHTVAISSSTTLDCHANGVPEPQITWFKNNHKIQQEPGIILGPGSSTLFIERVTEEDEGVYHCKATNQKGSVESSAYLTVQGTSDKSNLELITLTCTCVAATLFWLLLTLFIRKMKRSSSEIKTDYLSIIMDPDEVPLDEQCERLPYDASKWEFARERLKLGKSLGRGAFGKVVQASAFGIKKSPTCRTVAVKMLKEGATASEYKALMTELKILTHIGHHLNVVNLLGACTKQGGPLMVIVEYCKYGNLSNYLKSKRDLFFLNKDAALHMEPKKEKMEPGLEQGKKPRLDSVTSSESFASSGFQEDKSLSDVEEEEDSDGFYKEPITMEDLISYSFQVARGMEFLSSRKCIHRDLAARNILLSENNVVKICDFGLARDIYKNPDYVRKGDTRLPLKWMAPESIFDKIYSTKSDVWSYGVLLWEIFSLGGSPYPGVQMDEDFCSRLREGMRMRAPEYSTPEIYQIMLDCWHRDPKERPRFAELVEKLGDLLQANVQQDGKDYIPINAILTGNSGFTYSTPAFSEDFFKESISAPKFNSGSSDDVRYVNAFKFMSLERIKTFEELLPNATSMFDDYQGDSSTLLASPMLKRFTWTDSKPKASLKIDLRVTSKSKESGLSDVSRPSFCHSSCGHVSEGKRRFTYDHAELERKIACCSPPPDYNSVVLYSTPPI
# [17] = biological target: Serine/threonine-protein kinase NIM1 (Homo sapiens, UniProt Q8IY84); assay: Selectivity interaction (KinomeScan (DiscoverX)) EUB0000595a NIM1K; details: at 10 µM
# [18] = biological target: Tyrosine-protein kinase JAK2 (Homo sapiens, UniProt O60674); assay: Selectivity interaction (KinomeScan (DiscoverX)) EUB0000618a JAK2; details: at 10 µM
# [19] = biological target: Calcium/calmodulin-dependent protein kinase kinase 1 (Homo sapiens) (UniProt Q8N5S9); assay: Selectivity interaction (KinomeScan (DiscoverX)) EUB0000618a CAMKK1; details: at 10 µM
# [20] = biological target: T2, Serine/threonine-protein kinase ULK1 (Homo sapiens) (UniProt O75385); assay: Selectivity interaction (Ambit KINOMEscan and KiNATiv profiling in Jurkat cells) EUB0000090b ULK1; format: cell-based; details: at 1 µM
# T2 sequence (whole entry): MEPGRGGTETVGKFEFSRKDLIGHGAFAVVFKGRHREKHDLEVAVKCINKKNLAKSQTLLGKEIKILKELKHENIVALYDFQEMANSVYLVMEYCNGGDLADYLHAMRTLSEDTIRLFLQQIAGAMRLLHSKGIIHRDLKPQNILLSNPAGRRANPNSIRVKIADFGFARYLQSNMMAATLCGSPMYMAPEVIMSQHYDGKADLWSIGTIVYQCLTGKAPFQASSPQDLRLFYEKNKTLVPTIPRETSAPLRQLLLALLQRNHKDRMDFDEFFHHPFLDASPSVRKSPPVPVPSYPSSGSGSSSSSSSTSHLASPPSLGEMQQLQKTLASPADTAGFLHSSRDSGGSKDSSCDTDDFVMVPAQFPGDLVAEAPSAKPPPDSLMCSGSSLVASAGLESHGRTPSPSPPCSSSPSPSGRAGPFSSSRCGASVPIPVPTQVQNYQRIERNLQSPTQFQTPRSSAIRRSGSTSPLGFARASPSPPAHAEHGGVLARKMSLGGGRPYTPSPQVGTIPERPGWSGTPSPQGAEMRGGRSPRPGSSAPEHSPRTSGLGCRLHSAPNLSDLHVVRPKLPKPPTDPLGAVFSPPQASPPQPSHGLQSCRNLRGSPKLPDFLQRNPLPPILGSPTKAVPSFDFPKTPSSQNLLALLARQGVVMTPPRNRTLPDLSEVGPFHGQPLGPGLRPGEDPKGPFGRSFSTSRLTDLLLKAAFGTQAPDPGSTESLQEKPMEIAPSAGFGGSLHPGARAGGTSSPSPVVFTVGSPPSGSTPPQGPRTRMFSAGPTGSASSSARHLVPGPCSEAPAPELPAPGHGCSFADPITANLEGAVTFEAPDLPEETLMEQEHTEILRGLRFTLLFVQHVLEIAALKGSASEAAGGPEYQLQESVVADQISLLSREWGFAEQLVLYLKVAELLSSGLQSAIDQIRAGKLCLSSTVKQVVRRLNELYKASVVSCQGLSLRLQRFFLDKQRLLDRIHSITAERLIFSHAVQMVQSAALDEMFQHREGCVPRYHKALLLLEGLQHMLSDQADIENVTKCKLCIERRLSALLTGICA
# Casein kinase I isoform gamma-2 (Homo sapiens), sequence (P78368 whole entry, looked up, canonical isoform): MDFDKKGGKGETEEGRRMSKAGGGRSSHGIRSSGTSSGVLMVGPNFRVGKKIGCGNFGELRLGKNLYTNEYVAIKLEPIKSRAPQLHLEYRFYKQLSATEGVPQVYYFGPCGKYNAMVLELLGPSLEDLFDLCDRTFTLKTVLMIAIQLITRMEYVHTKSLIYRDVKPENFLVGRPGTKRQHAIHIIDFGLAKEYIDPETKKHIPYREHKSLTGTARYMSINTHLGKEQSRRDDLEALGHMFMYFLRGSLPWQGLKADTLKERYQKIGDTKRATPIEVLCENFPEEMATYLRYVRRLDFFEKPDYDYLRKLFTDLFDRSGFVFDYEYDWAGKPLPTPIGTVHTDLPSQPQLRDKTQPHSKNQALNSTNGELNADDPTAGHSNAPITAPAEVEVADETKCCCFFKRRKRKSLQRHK
smiles,measurement,setting,value
CCN(CC)CCCCNc1ncc2cc(-c3cc(OC)cc(OC)c3)c(NC(=O)NC(C)(C)C)nc2n1,% of control,[1],100%
COc1cc(N(C)c2ccnc3ccc(C(F)(F)F)cc23)cc(OC)c1OC,% binding,[2],96%
CCC(=O)N1CCN(c2ccc(-n3c(=O)ccc4cnc5ccc(-c6cnc7ccccc7c6)cc5c43)cc2C(F)(F)F)CC1,% of control,[3],59%
Cc1ccc(-c2ccc3c(ccc4sc5c(c43)NC[C@@H](C)NC5=O)n2)cn1,% of inhibition,[4],6%
CN(C)CCOc1ccc(-c2nc(-c3ccncc3)c(-c3ccc4c(c3)CC/C4=N\O)[nH]2)cc1,% of control,[5],59%
same,% of control,[6],100%
C=CC(=O)Nc1cccc(C(=O)Nc2ccc(Nc3cc(-c4[nH]c(SC)nc4C)ccn3)cc2)c1,% of control,[7]; at 1 µM,74%
same,% of control,[7]; at 5 µM,56%
Nc1cnc(N2CCc3cc(S(=O)(=O)Nc4c(F)cc(Cl)cc4F)cc(N4CCCC4=O)c32)nc1 [TP-020n],% of control,[8],100%
same,% of control,[9],100%
same,% of control,[10],88%
CN(C)CCCOc1ccc(-c2cc(NCCCn3cccn3)nc(S(C)(=O)=O)n2)cc1,dTM,[11],< 2 K
Cc1cc([C@@H](C)Nc2ccccc2C(=O)O)c2nc(N3CCOCC3)cc(=O)n2c1 [AZD-6482],% of control,[12],100%
Cn1cc(-n2cnc3c(NCc4nc5cc(Cl)c(Cl)cc5[nH]4)nc(N4CCOCC4)nc32)cn1,% of inhibition,[13],-1.64%
CC[C@@H]1[C@H](F)C(=O)N[C@@H]1COc1nccc2cc(C(N)=O)c(OC)cc12 [ZIMLOVISERTIB],% of inhibition,[14],2.4%
COc1cc(Nc2nc(C)cc(-c3cnn4nc(OC)ccc34)n2)cc(C(F)(F)F)c1,% of control,[15],100%
COCC(=O)NC/C=C/c1ccc2ncnc(Nc3ccc(Oc4ccc(C)nc4)c(C)c3)c2c1 [CP-724714],% of control,[16],88%
same,% of control,[17],87%
O[C@H]1CC[C@H](Nc2ncc3nc(Nc4c(F)cc(F)cc4F)n([C@H]4CCOC4)c3n2)CC1,% of control,[18],97%
same,% of control,[19],100%
CN(C)C/C=C/C(=O)Nc1ccc(C(=O)N2CCCC(Nc3ncc(Cl)c(-c4c[nH]c5ccccc45)n3)C2)cc1 (stereo unspecified),% of control,[20],88%
